For data set [1] the following is noted: normal conditions (temperature 20° C. to 35° C., humidity 40% to 70%) till 6 months; cited from earlier work.
Data set [2] in a line: Plasma curcumin concentration (AUC and Cmax) after administration to rats. Type of data set: in vivo.
Protocol: The plasma curcumin concentration was measured by the following method using heparin plasma obtained by collecting about 0.2 mL of blood from the jugular vein of test animals (rats) without anesthesia at 0.25 hours, 0.5 hours, 1 hour, 2 hours, 4 hours, and/or 6 hours after start of administration.
To 20 μL of the collected plasma, 100 μL of 0.1 M acetate buffer (pH 5.0) and 10 μL of β-glucuronidase solution (about 68,000 units/mL) were added. The mixture was kept at 37° C. for 1 hour. Subsequently, 10 μL of 50% (v/v) methanol containing 20 ng/mL of Mepronil, an internal standard, and 0.5 mL of chloroform were added. The mixture was stirred with a vortex mixer for 1 minute and then mixed with an ultrasonic generator for 15 minutes to perform an extraction process. The extraction process liquid was separated into a chloroform layer and an aqueous layer by centrifugation (13,000×g, 5 min, room temperature). The separated aqueous layer was further subjected to an extraction process in which extraction was performed by adding chloroform in the same manner as described above. Next, the chloroform layer was collected and dried to solid by distilling the solvent off using a vacuum centrifugal concentrator, and 100 μL of 50% (v/v) methanol was added thereto, followed by centrifugation (13,000×g, 5 min, room temperature). The supernatant was then collected.
The plasma curcumin concentration was measured by analyzing 2 μL of the prepared supernatant using LC-MS/MS (available from Bruker). […]
The calibration curve used to quantitatively determine the curcumin content in the sample was obtained by performing measurement under the same conditions as described above using various standard solutions (curcumin concentration: 0.9 to 225 ng/mL) prepared by adding 10 μL of a 50% ethanol solution containing 20 ng/mL of Mepronil to 90 μL of a 50% (v/v) methanol solution (curcumin standard solution) containing 1.0, 2.0, 3.9, 7.8, 15.6, 31.3, 62.5, 125, or 250 ng/mL of curcumin.

On to `COc1cc(/C=C/C(=O)/C=C(O)/C=C/c2ccc(O)c(OC)c2)ccc1O` [amorphous curcumin, curcumin], for which the “Storage stability of sample stored in a container” value in data set [1] is listed as “generally stable”.
Turning to `COc1cc(/C=C/C(=O)/C=C(O)/C=C/c2ccc(O)c(OC)c2)ccc1O` [Comparative Example 2, curcumin], in data set [2] (rat, oral, plasma curcumin after β-glucuronidase treatment), the Cmax was found to be 85 ng/mL. The compound further yielded an AUC in data set [2] (rat, oral, plasma curcumin after β-glucuronidase treatment, 0 to 6 hrs) of 292 ng·h/mL. Moreover, the “Cmax relative to Comparative Example 1 (value in parentheses)” value in data set [2] (ratio to commercial curcumin formulation (Comparative Example 1 = 1.0)) turned out to be 0.84 times.

The values above are taken from patent US12605346B2, “Composition containing curcumin compound, and method for producing same” (THERABIOPHARMA INC., priority 2020, dated 2026).
